In US7772245B2, “Inhibitors of histone deacetylase” (Miikana Therapeutics, Inc., priority 2005, dated 2010):

Tests used:
HCT116 cells = experiment: Whole cell cytotoxicity assay: Sulforhodamine B; format: cell-based; settings: Homo sapiens, HCT-116; 100 μM compound; 48 hours incubation with drug; Sulforhodamine B staining; read-out: % Inhibition of HCT116 cell growth @ 100 μM
HDAC = experiment: In vitro fluorescent histone deacetylase assay (Biomol HDAC fluorescent activity kit, HeLa cell nuclear extract); format: biochemical; settings: 100 μM compound; HeLa cell nuclear extract as source of HDAC activity; 50 μM substrate, 10 min at room temperature
Summary of the method: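 HeLa nuclear extract as HDAC source with fluorogenic substrate at 50 μM final, reacting 10 min at room temperature before stop. Compounds serially diluted in assay buffer, final DMSO ≤2%; fluorescence read at ex 355 nm / em 460 nm.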

In the case of `CS(=O)(=O)NCc1cccc(-c2ccc3[nH]c4c(c3c2)CN(c2ncc(C(=O)NO)cn2)CC4)c1` [Example 83, N-hydroxy-2-{8-[3-(N-methylsulfonamidomethyl)phenyl]-1,3,4,5-tetrahydro-2H-pyrido[4,3-b]indol-2-yl}pyrimidine-5-carboxamide], the inhibition at 100 µM (HCT116 cells) is reported as 94.7% and the “% Inhibition of HDAC @ 100 μM” value (HDAC) is reported as 99.9%.
In the case of `O=C(NO)c1cnc(N2CCc3[nH]c4ccc(-c5cccc(-c6nnn[nH]6)c5)cc4c3C2)nc1` [Example 84, N-hydroxy-2-{8-[3-(1H-tetrazol-5-yl)phenyl]-1,3,4,5-tetrahydro-2H-pyrido[4,3-b]indol-2-yl}pyrimidine-5-carboxamide], the inhibition at 100 µM (HCT116 cells) is reported as 93.2% and the “% Inhibition of HDAC @ 100 μM” value (HDAC) is reported as 99.9%.
`Nc1cccc(-c2ccc3[nH]c4c(c3c2)CN(c2ncc(C(=O)NO)cn2)CC4)c1` [Example 86, N-hydroxy-2-{8-[3-aminophenyl]-1,3,4,5-tetrahydro-2H-pyrido[4,3-b]indol-2-yl}pyrimidine-5-carboxamide] was tested, and the inhibition at 100 µM (HCT116 cells) was 99.1% and the “% Inhibition of HDAC @ 100 μM” value (HDAC) was 100%.
`CC(=O)Nc1cccc(-c2ccc3[nH]c4c(c3c2)CN(c2ncc(C(=O)NO)cn2)CC4)c1` [Example 87, N-hydroxy-2-{8-[3-(N-acetamido)phenyl]-1,3,4,5-tetrahydro-2H-pyrido[4,3-b]indol-2-yl}pyrimidine-5-carboxamide] was tested, and the inhibition at 100 µM (HCT116 cells) was 83.1% and the “% Inhibition of HDAC @ 100 μM” value (HDAC) was 100%.
In the case of `O=C(NO)c1cnc(N2CCc3[nH]c4ccc(-c5cccc(CN6CCOCC6)c5)cc4c3C2)nc1` [Example 90, N-hydroxy-2-{8-[3-(morpholin-4-ylmethyl)phenyl]-1,3,4,5-tetrahydro-2H-pyrido[4,3-b]indol-2-yl}pyrimidine-5-carboxamide], the inhibition at 100 µM (HCT116 cells) is reported as 93.1% and the “% Inhibition of HDAC @ 100 μM” value (HDAC) is reported as 99.8%.
In the case of `O=C(NO)c1cnc(N2CCc3[nH]c4ccc(-c5cccc(CN6CCCCC6)c5)cc4c3C2)nc1` [Example 91, N-hydroxy-2-{8-[3-(piperidin-1-ylmethyl)phenyl]-1,3,4,5-tetrahydro-2H-pyrido[4,3-b]indol-2-yl}pyrimidine-5-carboxamide], the inhibition at 100 µM (HCT116 cells) is reported as 98.6% and the “% Inhibition of HDAC @ 100 μM” value (HDAC) is reported as 100%.
For `O=C(NO)c1cnc(N2CCc3[nH]c4ccc(-c5cccc(CN6CCC(CO)CC6)c5)cc4c3C2)nc1` [Example 93, N-hydroxy-2-{8-[3-((4-hydroxymethylpiperidin-1-yl)methyl)phenyl]-1,3,4,5-tetrahydro-2H-pyrido[4,3-b]indol-2-yl}pyrimidine-5-carboxamide], the inhibition at 100 µM (HCT116 cells) was 98% and the “% Inhibition of HDAC @ 100 μM” value (HDAC) was 100%.
In the case of `O=C(NO)c1cnc(N2CCc3[nH]c4ccc(-c5cccc(CN6CCSCC6)c5)cc4c3C2)nc1` [Example 94, N-hydroxy-2-{8-[3-(thiomorpholin-4-ylmethyl)phenyl]-1,3,4,5-tetrahydro-2H-pyrido[4,3-b]indol-2-yl}pyrimidine-5-carboxamide], the inhibition at 100 µM (HCT116 cells) is reported as 98.5% and the “% Inhibition of HDAC @ 100 μM” value (HDAC) is reported as 99.7%.
For `O=C(NO)c1cnc(N2CCc3[nH]c4ccc(-c5cccc(CN(CCO)CCO)c5)cc4c3C2)nc1` [Example 95, N-hydroxy-2-{8-[3-(N,N-di(2-hydroxyethyl)aminomethyl)phenyl]-1,3,4,5-tetrahydro-2H-pyrido[4,3-b]indol-2-yl}pyrimidine-5-carboxamide], the inhibition at 100 µM (HCT116 cells) was 98.2% and the “% Inhibition of HDAC @ 100 μM” value (HDAC) was 100%.
With `CN1CCN(Cc2cccc(-c3ccc4[nH]c5c(c4c3)CN(c3ncc(C(=O)NO)cn3)CC5)c2)CC1` [Example 96, N-hydroxy-2-{8-[3-((4-methylpiperazin-1-yl)methyl)phenyl]-1,3,4,5-tetrahydro-2H-pyrido[4,3-b]indol-2-yl}pyrimidine-5-carboxamide] the inhibition at 100 µM (HCT116 cells) was 98.7% and the “% Inhibition of HDAC @ 100 μM” value (HDAC) was 100%.
With `O=C(NO)c1cnc(N2CCc3[nH]c4ccc(-c5cccc(CN6CCCC6)c5)cc4c3C2)nc1` [Example 97, N-hydroxy-2-{8-[3-(pyrrolidin-1-ylmethyl)phenyl]-1,3,4,5-tetrahydro-2H-pyrido[4,3-b]indol-2-yl}pyrimidine-5-carboxamide] the inhibition at 100 µM (HCT116 cells) was 98.1% and the “% Inhibition of HDAC @ 100 μM” value (HDAC) was 100%.
